# Experimental data reported in patent publication US9260439B2, “Dihydropyrrolopyrimidine derivatives” (PFIZER INC., priority 2014, dated 2016).
# Molecular target: truncated PI3Kα (p110α/iSH2 p85α) (Homo sapiens (Human), UniProt P42336)
# Assay: PI3KA_Act fluorescence polarization kinase assay (Ki)
# Type: biochemical
# Conditions: 1 mM ATP
# How it was run: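 p110α/iSH2 p85α (0.5 nM) was reacted with 30 μM sonicated PIP2 in 50 mM HEPES pH 7.4, 150 mM NaCl, 5 mM MgCl2, 1 mM DTT and 0.05% CHAPS for 30 min at room temperature, then stopped with EDTA. PIP3 was detected by fluorescence polarization (GST-Grp1 PH domain/TAMRA-PIP3), and Ki came from a Morrison tight-binding fit.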
# Sequence of truncated PI3Kα (p110α/iSH2 p85α) (P42336 whole entry, the tested form may be a part): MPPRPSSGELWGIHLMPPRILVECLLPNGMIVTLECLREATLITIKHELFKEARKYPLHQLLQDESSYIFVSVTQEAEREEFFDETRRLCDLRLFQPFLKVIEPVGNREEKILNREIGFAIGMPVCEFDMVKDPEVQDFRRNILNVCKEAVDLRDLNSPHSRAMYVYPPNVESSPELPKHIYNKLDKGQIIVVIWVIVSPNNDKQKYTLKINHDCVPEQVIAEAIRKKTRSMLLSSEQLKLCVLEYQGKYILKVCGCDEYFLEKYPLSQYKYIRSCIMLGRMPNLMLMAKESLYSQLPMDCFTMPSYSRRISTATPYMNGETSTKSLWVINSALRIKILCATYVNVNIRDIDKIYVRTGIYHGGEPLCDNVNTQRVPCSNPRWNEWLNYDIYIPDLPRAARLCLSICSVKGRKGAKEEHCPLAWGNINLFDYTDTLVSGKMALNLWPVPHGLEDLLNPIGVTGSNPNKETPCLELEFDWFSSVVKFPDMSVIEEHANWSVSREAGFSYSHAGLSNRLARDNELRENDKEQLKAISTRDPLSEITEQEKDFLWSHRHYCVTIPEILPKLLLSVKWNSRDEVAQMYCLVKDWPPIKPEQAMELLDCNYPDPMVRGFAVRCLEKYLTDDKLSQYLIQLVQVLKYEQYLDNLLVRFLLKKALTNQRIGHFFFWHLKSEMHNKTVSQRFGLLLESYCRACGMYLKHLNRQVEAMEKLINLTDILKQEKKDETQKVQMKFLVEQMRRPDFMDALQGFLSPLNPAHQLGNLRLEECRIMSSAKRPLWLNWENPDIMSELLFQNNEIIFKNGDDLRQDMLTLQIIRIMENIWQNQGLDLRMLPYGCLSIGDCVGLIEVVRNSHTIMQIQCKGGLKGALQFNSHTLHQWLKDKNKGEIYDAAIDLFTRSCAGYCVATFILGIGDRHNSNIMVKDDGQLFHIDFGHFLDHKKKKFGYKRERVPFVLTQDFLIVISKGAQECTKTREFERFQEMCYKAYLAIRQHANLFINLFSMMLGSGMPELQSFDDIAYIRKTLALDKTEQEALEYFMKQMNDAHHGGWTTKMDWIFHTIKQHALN
row,Compound,PI3KA_Act Ki
1,"C[C@]1(N2CCc3c(-c4cnc(N)nc4)nc(N4CCOCC4)nc32)CCN(C(=O)[C@H](N)C(F)(F)F)C1.Cl [Example 314, (2S)-2-amino-1-{(3S)-3-[4-(2-aminopyrimidin-5-yl)-2-(morpholin-4-yl)-5,6-dihydro-7H-pyrrolo[2,3-d]pyrimidin-7-yl]-3-methylpyrrolidin-1-yl}-3,3,3-trifluoropropan-1-one hydrochloride]",<0.018 nM
2,"CC(C(N)=O)C(=O)N1CC[C@](C)(N2CCc3c(-c4cnc(N)nc4)nc(N4CCOCC4)nc32)C1 (stereo partly drawn) [Example 315, 3-{(3S)-3-[4-(2-aminopyrimidin-5-yl)-2-(morpholin-4-yl)-5,6-dihydro-7H-pyrrolo[2,3-d]pyrimidin-7-yl]-3-methylpyrrolidin-1-yl}-2-methyl-3-oxopropanamide]",<0.018 nM
3,"CC(C)(C(N)=O)C(=O)N1CC[C@](C)(N2CCc3c(-c4cnc(N)nc4)nc(N4CCOCC4)nc32)C1 [Example 318, 3-{(3S)-3-[4-(2-aminopyrimidin-5-yl)-2-(morpholin-4-yl)-5,6-dihydro-7H-pyrrolo[2,3-d]pyrimidin-7-yl]-3-methylpyrrolidin-1-yl}-2,2-dimethyl-3-oxopropanamide]",0.076 nM
4,"CC(C)(C(=O)O)C(=O)N1CC[C@](C)(N2CCc3c(-c4cnc(N)nc4)nc(N4CCOCC4)nc32)C1 [Example 319, 3-{(3S)-3-[4-(2-aminopyrimidin-5-yl)-2-(morpholin-4-yl)-5,6-dihydro-7H-pyrrolo[2,3-d]pyrimidin-7-yl]-3-methylpyrrolidin-1-yl}-2,2-dimethyl-3-oxopropanoic acid]",2.266 nM
5,"CC(C(=O)O)C(=O)N1CC[C@](C)(N2CCc3c(-c4cnc(N)nc4)nc(N4CCOCC4)nc32)C1 (stereo partly drawn) [Example 320, 3-{(3S)-3-[4-(2-aminopyrimidin-5-yl)-2-(morpholin-4-yl)-5,6-dihydro-7H-pyrrolo[2,3-d]pyrimidin-7-yl]-3-methylpyrrolidin-1-yl}-2-methyl-3-oxopropanoic acid]",0.318 nM
6,"CCOC(=O)C(C)C(=O)N1CC[C@](C)(N2CCc3c(-c4cnc(N)nc4)nc(N4CCOCC4)nc32)C1 (stereo partly drawn) [Example 321, ethyl 3-{(3S)-3-[4-(2-aminopyrimidin-5-yl)-2-(morpholin-4-yl)-5,6-dihydro-7H-pyrrolo[2,3-d]pyrimidin-7-yl]-3-methylpyrrolidin-1-yl}-2-methyl-3-oxopropanoate]",0.042 nM
7,"CCOC(=O)C(C)(C)C(=O)N1CC[C@](C)(N2CCc3c(-c4cnc(N)nc4)nc(N4CCOCC4)nc32)C1 [Example 322, ethyl 3-{(3S)-3-[4-(2-aminopyrimidin-5-yl)-2-(morpholin-4-yl)-5,6-dihydro-7H-pyrrolo[2,3-d]pyrimidin-7-yl]-3-methylpyrrolidin-1-yl}-2,2-dimethyl-3-oxopropanoate]",<0.018 nM
8,"C[C@]1(N2CCc3c(-c4cnc(N)nc4)nc(N4CCOCC4)nc32)CCN(C(=O)CC2CC2)C1 [Example 323, 1-{(3S)-3-[4-(2-aminopyrimidin-5-yl)-2-(morpholin-4-yl)-5,6-dihydro-7H-pyrrolo[2,3-d]pyrimidin-7-yl]-3-methylpyrrolidin-1-yl}-2-cyclopropylethanone]",<0.018 nM
9,"C[C@@]1(N2CCc3c(-c4cnc(N)nc4)nc(N4CCOCC4)nc32)CCN(C(=O)CC2CC2)C1 [Example 324, 1-{(3R)-3-[4-(2-aminopyrimidin-5-yl)-2-(morpholin-4-yl)-5,6-dihydro-7H-pyrrolo[2,3-d]pyrimidin-7-yl]-3-methylpyrrolidin-1-yl}-2-cyclopropylethanone]",0.198 nM
10,"C[C@]1(N2CCc3c(-c4cnc(N)nc4)nc(N4CCOCC4)nc32)CCN(C(=O)CN2CCC2)C1 [Example 325, 1-{(3S)-3-[4-(2-aminopyrimidin-5-yl)-2-(morpholin-4-yl)-5,6-dihydro-7H-pyrrolo[2,3-d]pyrimidin-7-yl]-3-methylpyrrolidin-1-yl}-2-(azetidin-1-yl)ethanone]",0.058 nM
11,"C[C@]1(N2CCc3c(-c4cnc(N)nc4)nc(N4CCOCC4)nc32)CCN(C(=O)C2CC2)C1 [Example 328, {(3S)-3-[4-(2-aminopyrimidin-5-yl)-2-(morpholin-4-yl)-5,6-dihydro-7H-pyrrolo[2,3-d]pyrimidin-7-yl]-3-methylpyrrolidin-1-yl}(cyclopropyl) methanone]",0.024 nM
12,"CC1(C(=O)N2CC[C@](C)(N3CCc4c(-c5cnc(N)nc5)nc(N5CCOCC5)nc43)C2)CC1 [Example 329, {(3S)-3-[4-(2-aminopyrimidin-5-yl)-2-(morpholin-4-yl)-5,6-dihydro-7H-pyrrolo[2,3-d]pyrimidin-7-yl]-3-methylpyrrolidin-1-yl}(1-methylcyclopropyl) methanone]",<0.018 nM
13,"CC1(C(=O)N2CC[C@@](C)(N3CCc4c(-c5cnc(N)nc5)nc(N5CCOCC5)nc43)C2)CC1 [Example 330, {(3R)-3-[4-(2-aminopyrimidin-5-yl)-2-(morpholin-4-yl)-5,6-dihydro-7H-pyrrolo[2,3-d]pyrimidin-7-yl]-3-methylpyrrolidin-1-yl}(1-methylcyclopropyl) methanone]",0.152 nM
14,"C[C@]1(N2CCc3c(-c4cnc(N)nc4)nc(N4CCOCC4)nc32)CCN(C(=O)[C@H]2C[C@@H]2F)C1 [Example 332, {(3S)-3-[4-(2-aminopyrimidin-5-yl)-2-(morpholin-4-yl)-5,6-dihydro-7H-pyrrolo[2,3-d]pyrimidin-7-yl]-3-methylpyrrolidin-1-yl}[(1R,2S)-2-fluorocyclopropyl] methanone]",<0.018 nM
15,"C[C@]1(N2CCc3c(-c4cnc(N)nc4)nc(N4CCOCC4)nc32)CCN(C(=O)[C@@H]2C[C@H]2F)C1 [Example 333, {(3S)-3-[4-(2-aminopyrimidin-5-yl)-2-(morpholin-4-yl)-5,6-dihydro-7H-pyrrolo[2,3-d]pyrimidin-7-yl]-3-methylpyrrolidin-1-yl}[(1S,2R)-2-fluorocyclopropyl] methanone]",<0.018 nM
16,"C[C@]1(N2CCc3c(-c4cnc(N)nc4)nc(N4CCOCC4)nc32)CCN(C(=O)[C@@H]2C[C@@H]2F)C1 [Example 334, {(3S)-3-[4-(2-aminopyrimidin-5-yl)-2-(morpholin-4-yl)-5,6-dihydro-7H-pyrrolo[2,3-d]pyrimidin-7-yl]-3-methylpyrrolidin-1-yl}[(1S,2S)-2-fluorocyclopropyl] methanone]",0.021 nM
17,"C[C@]1(N2CCc3c(-c4cnc(N)nc4)nc(N4CCOCC4)nc32)CCN(C(=O)[C@H]2C[C@H]2F)C1 [Example 335, {(3S)-3-[4-(2-aminopyrimidin-5-yl)-2-(morpholin-4-yl)-5,6-dihydro-7H-pyrrolo[2,3-d]pyrimidin-7-yl]-3-methylpyrrolidin-1-yl}[(1R,2R)-2-fluorocyclopropyl] methanone]",<0.018 nM
18,"C[C@]1(N2CCc3c(-c4cnc(N)nc4)nc(N4CCOCC4)nc32)CCN(C(=O)[C@H]2CC2(F)F)C1 [Example 336, {(3S)-3-[4-(2-aminopyrimidin-5-yl)-2-(morpholin-4-yl)-5,6-dihydro-7H-pyrrolo[2,3-d]pyrimidin-7-yl]-3-methylpyrrolidin-1-yl}[(1R)-2,2-difluorocyclopropyl] methanone]",0.054 nM
19,"C[C@]1(N2CCc3c(-c4cnc(N)nc4)nc(N4CCOCC4)nc32)CCN(C(=O)[C@@H]2CC2(F)F)C1 [Example 337, {(3S)-3-[4-(2-aminopyrimidin-5-yl)-2-(morpholin-4-yl)-5,6-dihydro-7H-pyrrolo[2,3-d]pyrimidin-7-yl]-3-methylpyrrolidin-1-yl}[(1S)-2,2-difluorocyclopropyl] methanone]",<0.018 nM
20,"C[C@]1(N2CCc3c(-c4cnc(N)nc4)nc(N4CCOCC4)nc32)CCN(C(=O)C2(N)CC2)C1.Cl [Example 340, (1-aminocyclopropyl) {(3S)-3-[4-(2-aminopyrimidin-5-yl)-2-(morpholin-4-yl)-5,6-dihydro-7H-pyrrolo[2,3-d]pyrimidin-7-yl]-3-methylpyrrolidin-1-yl}methanone hydrochloride]",0.234 nM
21,"C[C@]1(N2CCc3c(-c4cnc(N)nc4)nc(N4CCOCC4)nc32)CCN(C(=O)C2CCC2)C1 [Example 341, {(3S)-3-[4-(2-aminopyrimidin-5-yl)-2-(morpholin-4-yl)-5,6-dihydro-7H-pyrrolo[2,3-d]pyrimidin-7-yl]-3-methylpyrrolidin-1-yl}(cyclobutyl)meth-anone]",<0.018 nM
22,"C[C@@]1(N2CCc3c(-c4cnc(N)nc4)nc(N4CCOCC4)nc32)CCN(C(=O)C2CCC2)C1 [Example 342, {(3R)-3-[4-(2-aminopyrimidin-5-yl)-2-(morpholin-4-yl)-5,6-dihydro-7H-pyrrolo[2,3-d]pyrimidin-7-yl]-3-methylpyrrolidin-1-yl}(cyclobutyl)meth-anone]",0.141 nM
23,"C[C@]1(N2CCc3c(-c4cnc(N)nc4)nc(N4CCOCC4)nc32)CCN(C(=O)C2(O)CCC2)C1 [Example 343, {(3S)-3-[4-(2-aminopyrimidin-5-yl)-2-(morpholin-4-yl)-5,6-dihydro-7H-pyrrolo[2,3-d]pyrimidin-7-yl]-3-methylpyrrolidin-1-yl}(1-hydroxycyclobutyl) methanone]",0.089 nM
24,"C[C@@]1(N2CCc3c(-c4cnc(N)nc4)nc(N4CCOCC4)nc32)CCN(C(=O)C2(O)CCC2)C1 [Example 344, {(3R)-3-[4-(2-aminopyrimidin-5-yl)-2-(morpholin-4-yl)-5,6-dihydro-7H-pyrrolo[2,3-d]pyrimidin-7-yl]-3-methylpyrrolidin-1-yl}(1-hydroxycyclobutyl) methanone]",0.098 nM
25,"C[C@]1(N2CCc3c(-c4cnc(N)nc4)nc(N4CCOCC4)nc32)CCN(C(=O)C2CC(O)C2)C1 (stereo partly drawn) [Example 345, {(3S)-3-[4-(2-aminopyrimidin-5-yl)-2-(morpholin-4-yl)-5,6-dihydro-7H-pyrrolo[2,3-d]pyrimidin-7-yl]-3-methylpyrrolidin-1-yl}(3-hydroxycyclobutyl) methanone]",0.028 nM
